Converted amounts (≈) assume the structure as drawn.
Target: purified human C5 (Homo sapiens, UniProt P01031)
Experiment: Red blood cell (RBC) hemolysis assay, optical, absorbance 412 nm (Example 10, Table 19)
Format: cell-based
Conditions: antibody-sensitized sheep erythrocytes, […] human C5 depleted sera, 0.5 nM purified human C5, absorbance 412 nm; read-out: RBC Hemolysis IC50

Sequence of purified human C5 (P01031 19-1676): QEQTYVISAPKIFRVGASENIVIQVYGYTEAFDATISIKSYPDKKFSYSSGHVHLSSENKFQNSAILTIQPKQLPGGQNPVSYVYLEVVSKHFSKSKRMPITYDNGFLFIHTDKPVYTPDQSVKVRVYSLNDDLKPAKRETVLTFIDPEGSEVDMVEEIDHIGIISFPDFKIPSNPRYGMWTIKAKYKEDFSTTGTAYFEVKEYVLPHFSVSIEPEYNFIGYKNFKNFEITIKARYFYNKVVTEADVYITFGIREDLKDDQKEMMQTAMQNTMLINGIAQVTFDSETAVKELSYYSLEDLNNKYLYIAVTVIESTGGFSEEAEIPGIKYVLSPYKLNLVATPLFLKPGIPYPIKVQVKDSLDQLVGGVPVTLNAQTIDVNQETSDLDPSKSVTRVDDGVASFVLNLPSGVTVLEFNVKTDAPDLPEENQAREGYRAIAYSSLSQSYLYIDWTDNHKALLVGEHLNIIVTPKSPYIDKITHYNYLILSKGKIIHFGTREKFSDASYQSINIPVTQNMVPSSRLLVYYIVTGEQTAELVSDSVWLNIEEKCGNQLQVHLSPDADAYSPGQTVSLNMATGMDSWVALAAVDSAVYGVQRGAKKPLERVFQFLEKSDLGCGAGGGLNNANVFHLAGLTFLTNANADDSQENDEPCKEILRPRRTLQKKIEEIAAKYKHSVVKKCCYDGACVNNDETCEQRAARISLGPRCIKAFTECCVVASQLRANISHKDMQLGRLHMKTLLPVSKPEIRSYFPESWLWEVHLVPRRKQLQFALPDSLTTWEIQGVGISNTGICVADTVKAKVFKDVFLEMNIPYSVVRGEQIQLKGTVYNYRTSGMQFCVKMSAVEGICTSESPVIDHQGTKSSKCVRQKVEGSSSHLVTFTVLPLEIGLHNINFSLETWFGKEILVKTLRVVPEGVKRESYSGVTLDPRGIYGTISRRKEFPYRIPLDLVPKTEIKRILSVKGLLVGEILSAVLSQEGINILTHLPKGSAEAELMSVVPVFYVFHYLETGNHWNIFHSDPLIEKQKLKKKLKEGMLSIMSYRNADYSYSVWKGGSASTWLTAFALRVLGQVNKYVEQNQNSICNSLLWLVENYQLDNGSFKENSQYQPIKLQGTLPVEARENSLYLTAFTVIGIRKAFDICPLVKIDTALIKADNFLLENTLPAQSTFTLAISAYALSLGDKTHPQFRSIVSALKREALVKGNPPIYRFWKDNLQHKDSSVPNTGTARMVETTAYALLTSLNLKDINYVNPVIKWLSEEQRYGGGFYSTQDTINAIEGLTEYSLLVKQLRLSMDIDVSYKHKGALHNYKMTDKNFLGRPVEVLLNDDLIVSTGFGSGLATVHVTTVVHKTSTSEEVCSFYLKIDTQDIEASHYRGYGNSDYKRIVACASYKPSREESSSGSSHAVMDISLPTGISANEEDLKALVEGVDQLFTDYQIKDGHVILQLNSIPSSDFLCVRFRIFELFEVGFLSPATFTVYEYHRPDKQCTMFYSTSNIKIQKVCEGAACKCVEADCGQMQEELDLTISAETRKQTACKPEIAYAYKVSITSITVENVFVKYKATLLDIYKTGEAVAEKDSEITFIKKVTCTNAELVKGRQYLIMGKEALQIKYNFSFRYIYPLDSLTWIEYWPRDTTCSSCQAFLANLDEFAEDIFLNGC

| Structure (SMILES) | IC50 |
| --- | --- |
| COc1ccc(NC(=O)Nc2ccc3cc[nH]c3c2)cc1OCCCC(C)C [Compound C5INH-0513] | 3320 nM |
| COc1ccc(NC(=O)NCc2c(F)cnc3c2ccn3CC(=O)N(C)C)cc1OCCCC(C)C [Compound C5INH-0515] | 1600 nM |
| COc1ccc(NC(=O)NCc2ccnc(NCCCN(C)C)c2OC)cc1OCCCC(C)C [Compound C5INH-0532] | 218 nM |
| COc1ccc(NC(=O)NCc2cccc3ccsc23)cc1OCCCC(C)C [Compound C5INH-0294] | 343 nM |
| COc1ccc(N)cc1CNC(=O)Nc1ccc(OC)c(OCCCC(C)C)c1 [Compound C5INH-0321] | 61 nM |
| COc1ccc(NC(=O)NCc2ccnc3c2ccn3CC(=O)N2CCOCC2)cc1OCCCC(C)C [Compound C5INH-0508] | 72 nM |
| COc1cc(CNC(=O)c2ccccc2)c(NC(=O)NCc2ccnc3[nH]ccc23)cc1OCCCC(C)C [Compound C5INH-0510] | 119 nM |
| COc1ccc(NC(=O)NCc2cccc3cn[nH]c23)cc1OCCCC(C)C [Compound C5INH-0448] | 4290 nM |
| CNC(=O)c1cccc(CNC(=O)Nc2ccc(OC)c(OCCCC(C)C)c2)c1 [Compound C5INH-0319] | 793 nM |
| COc1ccc(NC(=O)NCc2ccnc3c2ccn3CCN2CCOCC2)cc1OCCCC(C)C [Compound C5INH-0370] | 209 nM |
| COc1ccc(NC(=O)N2CCCC2c2ccccc2OC)cc1OCCCC(C)C (stereo not shown) [Compound C5INH-0371] | 67.6 nM |
| COc1ccc(NC(=O)NCc2ccc(CN3CCN(C)CC3)cc2)cc1OCCCC(C)C [Compound C5INH-0324] | 551 nM |
| COc1ccc(NC(=O)NCc2ccnc3c2ccn3CC(=O)N2CCCCC2)cc1OCCCC(C)C [Compound C5INH-0507] | 185 nM |
| COc1ccc(NC(=O)NCc2cccc3c2OCCO3)cc1OCCCC(C)C [Compound C5INH-0543] | 373 nM |
| COc1ccc(NC(=O)NC(C(=O)NO)c2cccc(OC)c2O)cc1OCCCC(C)C (stereo not shown) [Compound C5INH-0512] | 41.5 nM |
| COc1ccc(NC(=O)NCc2ccnc3c2ccn3Cc2ccncc2)cc1OCCCC(C)C [Compound C5INH-0540] | 432 nM |
| COc1cc(CNC(=O)C(C)(C)C)c(NC(=O)NCc2ccnc3[nH]ccc23)cc1OCCCC(C)C [Compound C5INH-0509] | 286 nM |
| COc1ccc(NC(=O)NCc2ccnc3c2ccn3CCN2CCCS2(=O)=O)cc1OCCCC(C)C [Compound C5INH-0411] | 618 nM |
| COc1ccc(OCCCC(C)C)cc1NC(=O)NC(CO)c1ccccc1 (stereo not shown) [Compound C5INH-0487] | 824 nM |
| COc1ccc(NC(=O)CN2CCOCC2)cc1CNC(=O)Nc1ccc(OC)c(OCCCC(C)C)c1 [Compound C5INH-0533] | 671 nM |
| COc1ccc(NC(=O)NCc2ccnc3c2ccn3CCC(=O)O)cc1OCCCC(C)C [Compound C5INH-0399] | 619 nM |

Target: T1, Human C5 (Homo sapiens, UniProt P01031)
T1 construct: purchased Complement Technology
T1 sequence (P01031 19-1676): as above
Experiment: Red blood cell (RBC) hemolysis assay, luminescent (Example 28, Table 32)
Format: cell-based
Conditions: sheep EA cells, 1.5% C5-depleted human serum, 0.5 nM human C5, 1 hour at 37° C., luminescence (Table 32)

| Structure (SMILES) | IC50 |
| --- | --- |
| COc1cc(CC(=O)N2CCOC(CN(C)C)C2)ccc1CN1C(=O)N(c2ccc(OC)c(OCCCC3CC3)c2)CC[C@@H]1C (stereo partly shown) [SC0142] | 2.1 nM |
| COc1ccc(N2CC[C@H](C)N(Cc3cccc4c3ccn4S(=O)(=O)c3ccc(C)cc3)C2=O)cc1OCCCC1CC1 [SC0225] | 110 nM |
| CCCCCOc1cc(N2CC(C)CN(Cc3ccc(CNC(C)=O)cc3OC)C2=O)ccc1OC (stereo not shown) [SC0198] | 9.7 nM |
| COc1cc(CC(=O)N(C)C)ccc1CN1C(=O)N(c2ccc(OC)c(OCCCC3CC3)c2)CC[C@@H]1C [SC0135] | 1.8 nM |
| CCCCCOc1cc(N2C[C@@H](C(N)=O)CN(Cc3cc(F)ccc3OC)C2=O)ccc1OC [SC0213] | 18.2 nM |
| COc1cc(CCN2CCOCC2)ccc1CN1C(=O)N(c2ccc(OC)c(OCCCC3CC3)c2)CC[C@@H]1C [SC0182] | 5.2 nM |
| CCCCCOc1cc(N2C[C@H](C)CN(Cc3ccc(CC(=O)N4CCOCC4)cc3OC)C2=O)ccc1OC [SC0193] | 8.3 nM |
| CCCCCOc1cc(N2CC[C@H](C)N(Cc3ccnc4c3c(Cl)cn4CC(=O)N[C@H]3CCNC3)C2=O)ccc1OC [SC0143] | 2.1 nM |
| CCCCCOc1cc(N2C[C@H](C(N)=O)CN(Cc3cc(F)ccc3OC)C2=O)ccc1OC [SC0215] | 18.6 nM |
| COc1cc(CC(=O)N2CCCC2)ccc1CN1CC(C)CN(c2ccc(OC)c(OCCCC3CC3)c2)C1=O (stereo not shown) [SC0191] | 7.3 nM |
| CCCCCOc1cc(N2CC[C@@H](C)N(Cc3cccc4c3ccn4CC(=O)OCC)C2=O)ccc1OC [SC0211] | 15.6 nM |
| COc1cc(CC(=O)N[C@H]2CN(C(=O)OC(C)(C)C)C[C@H]2F)ccc1CN1C(=O)N(c2ccc(OC)c(OCCCC3CC3)c2)CC[C@@H]1C [SC0160] | 2.7 nM |
| CCCCCOc1cc(N2CC(C)(C)CN(Cc3ccc(CC(=O)N(C)C)cc3OC)C2=O)ccc1OC [SC0220] | 42.1 nM |
| CCCCCOc1cc(N2CC(C(N)=O)CN(Cc3ccc(CNC(C)=O)cc3OC)C2=O)ccc1OC (stereo not shown) [SC0199] | 9.8 nM |
| COc1cc(CC(=O)N2CCOCC2)ccc1CN1C(=O)N(c2ccc(OC)c(OCCCC3CC3)c2)CC[C@@H]1C [SC0139] | 1.9 nM |
| CCCCCOc1cc(N2CC[C@H](C)N(Cc3ccnc4[nH]ccc34)C2=O)ccc1OC [SC0219] | 40 nM |
| CCCCCOc1cc(N2CC[C@H](C)N(Cc3ccc(CC(=O)N4CCOC(CN(C)C)C4)cc3OC)C2=O)ccc1OC (stereo partly shown) [SC0153] | 2.3 nM |
| CCCCCOc1cc(N2CC[C@H](C)N(Cc3cccc(OC)c3O)C2=O)ccc1OC [SC0195] | 8.5 nM |
| COc1cc(CC(=O)N2CCNC(=O)C2)ccc1CN1C(=O)N(c2ccc(OC)c(OCCCC3CC3)c2)CC[C@@H]1C [SC0118] | 1.4 nM |
| CCCCCOc1cc(N2C[C@H](C)CN(Cc3ccc(CC(=O)N4CCCC4)cc3OC)C2=O)ccc1OC [SC0207] | 11.8 nM |
| COc1cc(Cc2ncccn2)ccc1CN1C(=O)N(c2ccc(OC)c(OCCCC3CC3)c2)CC[C@@H]1C [SC0157] | 2.6 nM |
| CCCCCOc1cc(N2C[C@@H](C)CN(Cc3ccc(CC(=O)N4CCCC4)cc3OC)C2=O)ccc1OC [SC0212] | 16.5 nM |
| CCCCCOc1cc(N2CC[C@H](C)N(Cc3ccnc4c3c(Cl)cn4CC(=O)N3CC[C@H](N(C)C)C3)C2=O)ccc1OC [SC0129] | 1.7 nM |

Target: T1, Human C5
Experiment: Red blood cell (RBC) hemolysis assay, luminescent (Example 13, Table 22)
Format: cell-based
Conditions: sheep EA cells, […] C5-depleted human serum, 0.5 nM human C5, 1 hour 37° C., luminescence
Source text: Compound CU0136 is a racemic mixture of Compound CU0186 and CU0187. Numbers in parenthesis following compound numbers indicate alternate enantiomers (as distinguished by retention time during chromatographical separation).

| Structure (SMILES) | IC50 |
| --- | --- |
| CCC(F)(F)CCOc1cc(N2CCCN(Cc3ccc(CC(=O)N4CCOC(CN(C)C)C4)cc3OC)C2=O)ccc1OC (stereo not shown) [CU0175] | 28.1 nM |
| CCCCCOc1cc(N2CCCN(Cc3cccc4c3ccn4CC(=O)N3CCN=C(N(C)C)C3)C2=O)ccc1OC [CU0239] | 11.2 nM |
| CCCCCOc1cc(N2CCCN(Cc3ccnc4c3ccn4CC(=O)N3CCO[C@@H](COC)C3)C2=O)ccc1OC [CU0260] | 25 nM |
| CCCCCOc1cc(N2CCCN(Cc3ccc(CN)cc3OC)C2=O)ccc1OC [CU0201] | 7.4 nM |
| CCCCCOc1cc(N2CCCN(Cc3cccc4c3ccn4CC(=O)NC3(C)COC3)C2=O)ccc1OC [CU0245] | 12.2 nM |
| CCCCCOc1cc(N2CCCN(Cc3ccc(CC(=O)N4CCO[C@@H](COC)C4)cc3OC)C2=O)ccc1OC [CU0224] | 15.4 nM |
| CCCCCOc1cc(N2CCCN(Cc3ccc(CC(=O)N4CCO[C@@H](CN(C)C)C4)cc3OC)C2=O)ccc1OC (stereo in doubt) [CU0186] | 18.8 nM |

Tested on: not listed separately
Experiment: Kinetic solubility in PBS pH 7.4, HPLC-UV (Example 21, Table 27)
Format: physicochemical
Conditions: phosphate buffered saline, aqueous buffer, kinetic from dmso stock, 0.5 M PBS, shaken minimum 24 h at approximately 25° C., HPLC-UV 270 nm
Experimental: Compounds were analyzed for kinetic solubility values using a standard kinetic solubility assay format. First, test compounds were dissolved in DMSO (Aldrich Chemical Co., Milwaukee, Wis., USA) at a concentration of 0.010 mol/L and used to prepare standard calibrators in DMSO solution. 500.0 μM, 250.0 μM, 125.0 μM, 62.5 μM, 31.2 μM, and 15.6 μM standards were prepared in a Greiner UV-Star clear V-bottom 96-well plate (Greiner-Bio One, Germany) for generating a standard curve. Using Alfa Aesar's Sodium phosphate, 0.2 M buffer solution, pH 7.4 (Alfa Aesar, Haverhill, Mass., USA), aqueous phosphate buffered saline (PBS) was prepared by diluting with Milli-Q water for a final concentration of 0.05 M. The pH of the solution was adjusted to 7.4±0.1 using 0.1 M hydrochloric acid (Fisher Scientific Waltham, Mass., USA) or 0.1 M aqueous sodium hydroxide (Fisher Scientific Waltham, Mass., USA).
10 μL of 0.010 mol/L DMSO test compound stock solutions were pipetted to separate 1.5 mL centrifuge tubes in triplicate. To these tubes, 190 μl of 0.05 M PBS was added. Each tube was gently vortexed for 5 sec. The tubes were shaken for a minimum of 24 h at approximately 25° C. After shaking, the solutions were transferred to 0.5 mL centrifuge filter tubes (MilliporeSigma, Burlington, Mass., USA) and centrifuged at 10,000 rpm for 5 min. After centrifugation, supernatants were collected and used for compound concentration analysis.
Compound concentrations in each solution were determined using high pressure liquid chromatography (HPLC) with ultraviolet (UV) detection and comparison with external standards. For HPLC, a Waters Acquity CSH Phenyl-Hexyl column (2.1 mm×50 mm, 1.7 μm) was used together with a generic gradient method on a Waters H-class system equipped with a diode array detector: Solvent A=0.1% formic acid in water, Solvent B=0.1% formic acid in acetonitrile (MilliporeSigma, Burlington, Mass., USA), flow=0.65 mL/min, (t=0 min: 95% A-5% B, t=4.75 min: 0% A-100% B, t=4.85 min: 0% A-100% B, t=4.86 min: 95% A-5% B, t=5 min: 95% A-5% B). UV quantifications were performed at 270 nm. Solution concentrations were calculated using Microsoft Excel.

| Structure (SMILES) | solubility kinetic |
| --- | --- |
| CCC(F)(F)CCOc1cc(N2CCCN(Cc3ccc(CC(=O)N4CCOC(CN(C)C)C4)cc3OC)C2=O)ccc1OC (stereo not shown) [CU0175] | 486 µM (≈ 308 µg/mL) |
| CCCCCOc1cc(N2CCCN(Cc3cccc4c3ccn4CC(=O)N3CCN=C(N(C)C)C3)C2=O)ccc1OC [CU0239] | 333 µM (≈ 196 µg/mL) |
| CCCCCOc1cc(N2CCCN(Cc3ccnc4c3ccn4CC(=O)N3CCO[C@@H](COC)C3)C2=O)ccc1OC [CU0260] | 436 µM (≈ 259 µg/mL) |
| CCCCCOc1cc(N2CCCN(Cc3ccc(CN)cc3OC)C2=O)ccc1OC [CU0201] | 389 µM (≈ 172 µg/mL) |
| CCCCCOc1cc(N2CCCN(Cc3cccc4c3ccn4CC(=O)NC3(C)COC3)C2=O)ccc1OC [CU0245] | 142 µM (≈ 77.9 µg/mL) |
| CCCCCOc1cc(N2CCCN(Cc3ccc(CC(=O)N4CCO[C@@H](COC)C4)cc3OC)C2=O)ccc1OC [CU0224] | 466 µM (≈ 272 µg/mL) |
| CCCCCOc1cc(N2CCCN(Cc3ccc(CC(=O)N4CCO[C@@H](CN(C)C)C4)cc3OC)C2=O)ccc1OC (stereo in doubt) [CU0186] | 348 µM (≈ 208 µg/mL) |
